According to publication PMC7979765, “trans-Translation inhibitors bind to a novel site on the ribosome and clear Neisseria gonorrhoeae in vivo” (Nature Communications, 2021):
Values after ≈ are worked out from the molar mass of the structure shown. Values joined by “and” are separate entries in the source; they are usually repeats but may differ in a detail not shown here. Identical values can stand only once. Like-named read-outs stand apart in the source and are kept apart here.

Key:
[1] = tested on: Potassium Channel [KA]; experiment: Receptor Profiling 265510; type: binding, rat; conditions: 10 μM
Description: (§1) Several in vitro selectivity assays were performed at Eurofins Discovery Services using established methods and controls that behaved as expected (Supplementary Tables 5 and 6). […] For receptor panel profiling, MBX-4132 was evaluated at 10 μM and activity of >50% (agonist or antagonist; note that negative % inhibition indicates agonism) was scored as active.

[2] = target: T1, Histamine H1 (Homo sapiens, UniProt P35367); experiment: Receptor Profiling 239610; type: binding
T1 construct: purchased Eurofins Discovery Services (Panlabs safety panel)
Description: as §1

[3] = Serum protein binding, dog; type: in vitro ADME
Description: Serum protein binding was determined using an equilibrium dialysis method as described. The amount of compound in each chamber (buffer and serum) was measured using methods for reverse-phase liquid chromatography/mass spectroscopy methods that were customized for each compound.

[4] = target: T2, Glucocorticoid (Homo sapiens, UniProt P04150); experiment: Receptor Profiling 232030; type: binding
T2 construct: purchased Eurofins Discovery Services (Panlabs safety panel)
Description: as §1

[5] = target: T3, Transporter, Norepinephrine (NET) (Homo sapiens, UniProt P23975); experiment: Receptor Profiling 204410; type: binding
T3 construct: purchased Eurofins Discovery Services 204410
Description: as §1

[6] = target: T4, Opiate Kappa (OP2, KOP) (Homo sapiens, UniProt P41145); experiment: Receptor Profiling 260210; type: binding
T4 construct: purchased Eurofins Discovery Services (Panlabs safety panel)
Description: as §1

[7] = target: T5, Muscarinic M1 (Homo sapiens, UniProt P11229); experiment: Receptor Profiling 252610; type: binding
T5 construct: purchased Eurofins Discovery Services (Panlabs safety panel)
Description: as §1

[8] = tested on: Calcium Channel L-Type, Dihydropyridine; experiment: Receptor Profiling 214600; type: binding, rat; conditions: 10 μM
Description: as §1

[9] = tested on: N. gonorrhoeae ATCC 49226; experiment: Time-kill assay
[10] = target: T6, CYP2D6 (Homo sapiens, UniProt P10635); experiment: Cyp inhibition assay 4875; type: in vitro ADME; conditions: catalog reference 4875, read-out: pIC50 (µM) reported (converted)
T6 construct: Eurofins Discovery Services (contract assay) 4875
Description: as §1

[11] = target: T7, Adenosine A2A (Homo sapiens, UniProt P29274); experiment: Receptor Profiling 200610; type: binding
T7 construct: purchased Eurofins Discovery Services (Panlabs safety panel)
Description: as §1

[12] = target: T8, Adrenergic β1 (Homo sapiens, UniProt P08588); experiment: Receptor Profiling 204010; type: binding
T8 construct: purchased Eurofins Discovery Services (Panlabs safety panel)
Description: as §1

[13] = target: T9, Androgen (testosterone) (Homo sapiens, UniProt P10275); experiment: Receptor Profiling 206000; type: binding
T9 construct: purchased Eurofins Discovery Services (Panlabs safety panel)
Description: as §1

[14] = target: T10, Adrenergic β2 (Homo sapiens, UniProt P07550); experiment: Receptor Profiling 204110; type: binding
T10 construct: purchased Eurofins Discovery Services (Panlabs safety panel)
Description: as §1

[15] = target: T11, Transporter, Serotonin (5-Hyroxytryptamine) (SERT) (Homo sapiens, UniProt P31645); experiment: Receptor Profiling 274030; type: binding
T11 construct: purchased Eurofins Discovery Services 274030
Description: as §1

[16] = target: T12, Adrenergic α2A (Homo sapiens, UniProt P08913); experiment: Receptor Profiling 203630; type: binding
T12 construct: purchased Eurofins Discovery Services (Panlabs safety panel)
Description: as §1

[17] = target: T13, Vasopressin V1A (Homo sapiens, UniProt P37288); experiment: Receptor Profiling 287530; type: binding
T13 construct: purchased Eurofins Discovery Services 287530
Description: as §1

[18] = tested on: Caco-2 cells; experiment: Caco-2 permeability; type: in vitro ADME, human
Description: (§2) To evaluate the potential for oral bioavailability, the ability of prioritized compounds to permeate a monolayer of Caco-2 (ATCC HTB-37) intestinal epithelial cells was determined as described. Caco-2 permeability values (Papp) > 1 × 10^−6 cm/sec are predictive of oral bioavailability.

[19] = Caco-2 permeability; type: in vitro ADME, human; conditions: human
Description: as §2

[20] = in vitro; conditions: mouse, serum

T6 sequence (P10635 whole entry): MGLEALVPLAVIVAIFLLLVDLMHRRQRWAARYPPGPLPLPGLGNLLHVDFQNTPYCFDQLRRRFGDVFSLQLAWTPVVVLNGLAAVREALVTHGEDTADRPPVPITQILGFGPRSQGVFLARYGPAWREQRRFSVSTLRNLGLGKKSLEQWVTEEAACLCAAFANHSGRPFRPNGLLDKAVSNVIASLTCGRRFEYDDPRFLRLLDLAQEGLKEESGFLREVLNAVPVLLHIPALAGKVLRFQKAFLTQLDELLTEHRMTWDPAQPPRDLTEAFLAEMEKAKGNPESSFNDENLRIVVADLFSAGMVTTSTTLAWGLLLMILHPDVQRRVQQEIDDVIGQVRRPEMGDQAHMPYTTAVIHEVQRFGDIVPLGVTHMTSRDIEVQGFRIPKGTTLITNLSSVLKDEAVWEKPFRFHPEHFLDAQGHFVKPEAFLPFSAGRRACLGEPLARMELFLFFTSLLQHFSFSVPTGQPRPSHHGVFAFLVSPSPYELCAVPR
T8 sequence (P08588 whole entry): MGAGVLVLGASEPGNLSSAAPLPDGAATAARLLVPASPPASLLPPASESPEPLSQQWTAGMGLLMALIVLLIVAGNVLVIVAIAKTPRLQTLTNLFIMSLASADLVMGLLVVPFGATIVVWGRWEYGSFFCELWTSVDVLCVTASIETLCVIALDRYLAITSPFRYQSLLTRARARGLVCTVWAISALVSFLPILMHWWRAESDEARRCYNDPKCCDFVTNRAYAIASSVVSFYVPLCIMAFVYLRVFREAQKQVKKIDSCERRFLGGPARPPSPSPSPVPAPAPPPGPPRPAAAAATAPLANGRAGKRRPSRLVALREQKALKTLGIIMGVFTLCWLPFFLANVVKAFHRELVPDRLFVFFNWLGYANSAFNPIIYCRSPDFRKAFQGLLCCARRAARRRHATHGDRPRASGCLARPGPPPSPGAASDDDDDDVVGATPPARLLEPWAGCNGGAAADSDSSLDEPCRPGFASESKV
T10 sequence (P07550 whole entry): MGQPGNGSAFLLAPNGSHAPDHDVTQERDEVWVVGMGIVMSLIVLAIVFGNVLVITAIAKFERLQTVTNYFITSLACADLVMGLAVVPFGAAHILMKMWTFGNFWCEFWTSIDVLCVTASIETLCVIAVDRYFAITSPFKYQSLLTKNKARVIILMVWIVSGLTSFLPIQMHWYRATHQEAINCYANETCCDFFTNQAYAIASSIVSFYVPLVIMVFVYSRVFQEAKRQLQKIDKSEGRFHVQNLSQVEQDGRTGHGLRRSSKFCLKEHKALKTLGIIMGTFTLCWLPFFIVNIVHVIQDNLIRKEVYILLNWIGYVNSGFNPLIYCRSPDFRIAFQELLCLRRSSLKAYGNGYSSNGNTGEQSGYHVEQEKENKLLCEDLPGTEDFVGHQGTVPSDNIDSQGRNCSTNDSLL
T1 sequence (P35367 whole entry): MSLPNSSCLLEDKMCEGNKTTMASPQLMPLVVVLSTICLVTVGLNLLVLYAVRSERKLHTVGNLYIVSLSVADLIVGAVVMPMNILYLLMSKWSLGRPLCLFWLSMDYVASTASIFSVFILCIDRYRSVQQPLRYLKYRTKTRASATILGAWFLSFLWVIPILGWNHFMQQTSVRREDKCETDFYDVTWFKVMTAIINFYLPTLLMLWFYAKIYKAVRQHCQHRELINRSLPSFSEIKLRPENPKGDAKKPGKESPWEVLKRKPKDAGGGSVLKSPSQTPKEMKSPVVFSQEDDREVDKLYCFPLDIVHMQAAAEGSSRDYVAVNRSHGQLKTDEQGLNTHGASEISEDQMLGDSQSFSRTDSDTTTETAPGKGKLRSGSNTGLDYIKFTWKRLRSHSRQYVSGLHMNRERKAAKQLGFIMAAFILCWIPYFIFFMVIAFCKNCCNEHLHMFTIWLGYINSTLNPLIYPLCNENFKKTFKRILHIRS
T7 sequence (P29274 whole entry): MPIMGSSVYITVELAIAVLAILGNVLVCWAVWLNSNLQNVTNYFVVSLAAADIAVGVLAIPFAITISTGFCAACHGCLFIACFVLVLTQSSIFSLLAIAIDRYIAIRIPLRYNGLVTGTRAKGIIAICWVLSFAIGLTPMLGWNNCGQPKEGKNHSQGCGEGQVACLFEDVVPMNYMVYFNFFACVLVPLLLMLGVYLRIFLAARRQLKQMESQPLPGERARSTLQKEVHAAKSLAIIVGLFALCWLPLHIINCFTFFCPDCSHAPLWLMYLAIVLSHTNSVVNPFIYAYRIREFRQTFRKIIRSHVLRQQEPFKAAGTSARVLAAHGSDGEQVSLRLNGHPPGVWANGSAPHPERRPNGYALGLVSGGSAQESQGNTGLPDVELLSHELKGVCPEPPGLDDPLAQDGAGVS
T13 sequence (P37288 whole entry): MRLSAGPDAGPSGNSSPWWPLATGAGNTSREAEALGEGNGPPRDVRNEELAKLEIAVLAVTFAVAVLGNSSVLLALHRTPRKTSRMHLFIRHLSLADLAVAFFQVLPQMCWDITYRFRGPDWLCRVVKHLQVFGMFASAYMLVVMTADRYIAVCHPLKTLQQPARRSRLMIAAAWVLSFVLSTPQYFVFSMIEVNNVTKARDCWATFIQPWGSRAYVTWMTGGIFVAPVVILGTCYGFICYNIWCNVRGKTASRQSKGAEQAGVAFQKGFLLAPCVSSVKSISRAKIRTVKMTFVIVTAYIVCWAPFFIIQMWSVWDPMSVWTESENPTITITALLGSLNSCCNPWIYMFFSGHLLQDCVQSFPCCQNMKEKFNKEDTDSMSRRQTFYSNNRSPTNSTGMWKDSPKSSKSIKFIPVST
T4 sequence (P41145 whole entry): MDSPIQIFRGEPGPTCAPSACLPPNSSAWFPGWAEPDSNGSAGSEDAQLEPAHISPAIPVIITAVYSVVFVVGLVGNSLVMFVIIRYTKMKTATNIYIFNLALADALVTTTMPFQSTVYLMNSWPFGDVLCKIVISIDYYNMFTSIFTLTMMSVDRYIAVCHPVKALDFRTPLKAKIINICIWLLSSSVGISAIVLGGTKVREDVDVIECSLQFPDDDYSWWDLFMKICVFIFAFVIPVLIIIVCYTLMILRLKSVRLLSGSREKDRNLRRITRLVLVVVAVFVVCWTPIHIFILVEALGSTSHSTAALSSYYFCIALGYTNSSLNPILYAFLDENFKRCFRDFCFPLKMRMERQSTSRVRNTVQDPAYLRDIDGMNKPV
T12 sequence (P08913 whole entry): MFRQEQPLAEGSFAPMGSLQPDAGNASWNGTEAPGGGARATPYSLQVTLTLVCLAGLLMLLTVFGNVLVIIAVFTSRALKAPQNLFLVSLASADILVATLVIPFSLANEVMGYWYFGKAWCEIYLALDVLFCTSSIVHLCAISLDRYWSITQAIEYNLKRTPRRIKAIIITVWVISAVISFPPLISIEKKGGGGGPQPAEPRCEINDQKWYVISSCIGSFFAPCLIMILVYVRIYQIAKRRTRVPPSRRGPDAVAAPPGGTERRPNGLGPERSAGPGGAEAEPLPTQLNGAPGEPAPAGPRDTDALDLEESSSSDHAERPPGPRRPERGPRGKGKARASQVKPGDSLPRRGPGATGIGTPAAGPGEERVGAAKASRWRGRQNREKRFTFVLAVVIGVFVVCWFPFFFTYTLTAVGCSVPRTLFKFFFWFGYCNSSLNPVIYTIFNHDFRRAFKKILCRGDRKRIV
T9 sequence (P10275 whole entry): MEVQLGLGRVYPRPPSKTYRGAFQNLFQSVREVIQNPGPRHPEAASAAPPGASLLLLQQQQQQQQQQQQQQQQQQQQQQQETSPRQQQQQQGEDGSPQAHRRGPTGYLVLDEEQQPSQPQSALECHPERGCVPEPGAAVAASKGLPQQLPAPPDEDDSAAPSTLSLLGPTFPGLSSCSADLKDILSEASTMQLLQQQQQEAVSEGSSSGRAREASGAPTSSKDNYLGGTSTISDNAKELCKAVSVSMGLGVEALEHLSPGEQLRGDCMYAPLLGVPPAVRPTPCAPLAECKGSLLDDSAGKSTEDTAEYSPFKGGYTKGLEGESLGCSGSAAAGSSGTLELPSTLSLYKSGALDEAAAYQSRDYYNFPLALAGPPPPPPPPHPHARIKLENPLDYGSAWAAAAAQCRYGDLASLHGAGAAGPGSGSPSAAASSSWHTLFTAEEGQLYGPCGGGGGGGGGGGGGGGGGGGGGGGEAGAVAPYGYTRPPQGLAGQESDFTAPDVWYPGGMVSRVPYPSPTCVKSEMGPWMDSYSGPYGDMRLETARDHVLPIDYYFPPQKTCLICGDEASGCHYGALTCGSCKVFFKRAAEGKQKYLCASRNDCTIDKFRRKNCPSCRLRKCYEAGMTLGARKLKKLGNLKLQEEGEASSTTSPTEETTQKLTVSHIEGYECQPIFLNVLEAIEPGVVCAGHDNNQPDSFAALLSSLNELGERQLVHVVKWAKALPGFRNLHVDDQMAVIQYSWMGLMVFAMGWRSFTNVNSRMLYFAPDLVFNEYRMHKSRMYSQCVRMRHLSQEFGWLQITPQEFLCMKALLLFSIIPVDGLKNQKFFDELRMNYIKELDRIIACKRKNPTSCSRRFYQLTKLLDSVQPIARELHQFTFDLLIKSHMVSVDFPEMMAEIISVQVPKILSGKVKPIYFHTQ
T5 sequence (P11229 whole entry): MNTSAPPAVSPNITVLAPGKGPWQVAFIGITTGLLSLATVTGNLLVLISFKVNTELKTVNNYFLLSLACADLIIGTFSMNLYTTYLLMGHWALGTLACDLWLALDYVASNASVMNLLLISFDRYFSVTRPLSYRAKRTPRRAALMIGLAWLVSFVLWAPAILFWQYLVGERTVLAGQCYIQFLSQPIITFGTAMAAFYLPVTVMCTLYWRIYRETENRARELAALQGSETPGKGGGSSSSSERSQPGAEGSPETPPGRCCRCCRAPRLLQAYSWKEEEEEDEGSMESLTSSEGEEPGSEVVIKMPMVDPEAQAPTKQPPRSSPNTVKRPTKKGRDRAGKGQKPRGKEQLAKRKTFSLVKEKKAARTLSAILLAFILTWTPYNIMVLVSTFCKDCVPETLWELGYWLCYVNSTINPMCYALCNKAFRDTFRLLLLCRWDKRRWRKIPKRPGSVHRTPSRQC

In the case of O=C(Nc1nnc(-c2ccc(F)cc2)o1)N1CCc2ccccc2C1 [MBX-4132], the “% inhibition” value [1] is reported as -2%, the inhibition at 10 µM [2] is reported as 11% and the fraction unbound ([3]; Average Value, Eurofins, read-out: Serum binding (% bound) Dog (converted)) is reported as 0.048. The fraction unbound ([3]; Replicate 1/2, Eurofins, read-out: Serum binding (% bound) Dog (converted)) was 0.095 and 0.002, the fraction unbound ([3]; Reported value, Eurofins, read-out: Serum binding (% bound) Dog (converted)) was 0.048 and the fraction unbound ([3]; read-out: Serum Binding (% bound) Dog (converted)) was 0.048. The inhibition at 10 µM [4] was -2%, the inhibition at 10 µM [5] was 6% and the inhibition at 10 µM [6] was 13%. The inhibition at 10 µM [7] was -7%, the “% inhibition” value [8] was 11% and the “AVE CFU/ml” value ([9]; 1X MIC, 0 h) was 9800000 CFU/ml. The “AVE CFU/ml” value ([9]; 1X MIC, 1 h) was 7.80E+06 CFU/ml and 7800000 CFU/ml, the “CFU/mL, replicates 1-3” value ([9]; 1X MIC, 1 h) was 7400000 CFU/mL and 6800000 CFU/mL and 9200000 CFU/mL and the “AVE CFU/ml” value ([9]; 1X MIC, 2 h) was 3.60E+06 CFU/ml and 3600000 CFU/ml. For the same molecule, the “CFU/mL, replicates 1-3” value ([9]; 1X MIC, 2 h) was 3800000 CFU/mL and 3600000 CFU/mL and 3400000 CFU/mL, the “AVE CFU/ml” value ([9]; 1X MIC, 4 h) was 5133333 CFU/ml and 5.13E+06 CFU/ml and the “CFU/mL, replicates 1-3” value ([9]; 1X MIC, 4 h) was 5800000 CFU/mL and 5200000 CFU/mL and 4400000 CFU/mL. For the same molecule, the “AVE CFU/ml” value ([9]; 1X MIC, 6 h) was 6200000 CFU/ml and 6.20E+06 CFU/ml, the “CFU/mL, replicates 1-3” value ([9]; 1X MIC, 6 h) was 6000000 CFU/mL and 5800000 CFU/mL and 6800000 CFU/mL and the “AVE CFU/ml” value ([9]; 1X MIC, 8 h) was 1173333 CFU/ml. The “AVE CFU/ml” value ([9]; 1X MIC, 8 h, listed as 4132) was 1.17E+06 CFU/ml, the “CFU/mL, replicates 1-3” value ([9]; 1X MIC, 8 h, listed as 4132) was 1120000 CFU/mL and 1160000 CFU/mL and 1240000 CFU/mL and the “AVE CFU/ml” value ([9]; 1X MIC, 24 h) was 6866667 CFU/ml and 6.87E+06 CFU/ml. The “CFU/mL, replicates 1-3” value ([9]; 1X MIC, 24 h) was 7400000 CFU/mL and 6400000 CFU/mL and 6800000 CFU/mL, the “AVE CFU/ml” value ([9]; 4X MIC, 0 h) was 9800000 CFU/ml and the “AVE CFU/ml” value ([9]; 4X MIC, 1 h) was 5.73E+06 CFU/ml and 5733333 CFU/ml. For the same molecule, the “CFU/mL, replicates 1-3” value ([9]; 4X MIC, 1 h) was 6400000 CFU/mL and 5600000 CFU/mL and 5200000 CFU/mL, the “AVE CFU/ml” value ([9]; 4X MIC, 2 h) was 3.73E+06 CFU/ml and 3733333 CFU/ml and the “CFU/mL, replicates 1-3” value ([9]; 4X MIC, 2 h) was 3600000 CFU/mL and 3400000 CFU/mL and 4200000 CFU/mL. The “AVE CFU/ml” value ([9]; 4X MIC, 4 h) was 2733333 CFU/ml and 2.73E+06 CFU/ml, the “CFU/mL, replicates 1-3” value ([9]; 4X MIC, 4 h) was 2400000 CFU/mL (2×) and 3400000 CFU/mL and the “AVE CFU/ml” value ([9]; 4X MIC, 6 h) was 2866667 CFU/ml and 2.87E+06 CFU/ml. For the same molecule, the “CFU/mL, replicates 1-3” value ([9]; 4X MIC, 6 h) was 3000000 CFU/mL (2×) and 2600000 CFU/mL, the “AVE CFU/ml” value ([9]; 4X MIC, 8 h) was 760000 CFU/ml and 7.60E+05 CFU/ml and the “CFU/mL, replicates 1-3” value ([9]; 4X MIC, 8 h) was 780000 CFU/mL and 800000 CFU/mL and 700000 CFU/mL. The “AVE CFU/ml” value ([9]; 4X MIC, 24 h) was 0 CFU/ml and 0.00E+00 CFU/ml, the “CFU/mL, replicates 1-3” value ([9]; 4X MIC, 24 h) was 0 CFU/mL and the “AVE CFU/ml” value ([9]; 8X MIC, 0 h) was 9800000 CFU/ml. For the same molecule, the “AVE CFU/ml” value ([9]; 8X MIC, 1 h) was 5.13E+06 CFU/ml and 5133333 CFU/ml, the “CFU/mL, replicates 1-3” value ([9]; 8X MIC, 1 h) was 5200000 CFU/mL and 4600000 CFU/mL and 5600000 CFU/mL and the “AVE CFU/ml” value ([9]; 8X MIC, 2 h) was 4.93E+06 CFU/ml and 4933333 CFU/ml. For the same molecule, the “CFU/mL, replicates 1-3” value ([9]; 8X MIC, 2 h) was 5400000 CFU/mL and 5200000 CFU/mL and 4200000 CFU/mL, the “AVE CFU/ml” value ([9]; 8X MIC, 4 h) was 3000000 CFU/ml and 3.00E+06 CFU/ml and the “CFU/mL, replicates 1-3” value ([9]; 8X MIC, 4 h) was 3000000 CFU/mL and 2800000 CFU/mL and 3200000 CFU/mL. The “AVE CFU/ml” value ([9]; 8X MIC, 6 h) was 993333 CFU/ml and 9.93E+05 CFU/ml, the “CFU/mL, replicates 1-3” value ([9]; 8X MIC, 6 h) was 1060000 CFU/mL and 940000 CFU/mL and 980000 CFU/mL and the “AVE CFU/ml” value ([9]; 8X MIC, 8 h) was 433333 CFU/ml and 4.33E+05 CFU/ml. For the same molecule, the “CFU/mL, replicates 1-3” value ([9]; 8X MIC, 8 h) was 400000 CFU/mL and 480000 CFU/mL and 420000 CFU/mL, the “AVE CFU/ml” value ([9]; 8X MIC, 24 h) was 0 CFU/ml and 0.00E+00 CFU/ml and the “CFU/mL, replicates 1-3” value ([9]; 8X MIC, 24 h) was 0 CFU/mL. The MIC ([9]; Neisseria gonorrhoeae, ATCC49226) was 0.5 µg/mL (≈ 1.48 µM), the bactericidal concentration ([9]; time-kill, N. gonorrhoeae) was ≥ 4 X MIC and the IC50 [10] was > 100 µM. It also gave an inhibition at 10 µM [11] of 42%, an inhibition at 10 µM [12] of -8% and an inhibition at 10 µM [13] of -2%. The inhibition at 10 µM [14] was 35%, the inhibition at 10 µM [15] was -10% and the inhibition at 10 µM [16] was 35%. For the same molecule, the inhibition at 10 µM [17] was -4%, the “Caco-2 Papp (A to B)” value ([18]; A to B) was 11 x 10^-6 cms^-1 and the “Caco-2 (Papp; x 10-6 cms-1) A→B” value ([18]; A→B, Replicate 1/2, Eurofins) was 9.9 x 10-6 cms-1. The “Caco-2 (Papp; x 10-6 cms-1) B→A” value ([18]; B→A, Replicate 1/2, Eurofins) was 8.19 x 10-6 cms-1, the Papp A→B ([19]; Caco-2, A to B, read-out: Caco-2 Papp (A to B)) was 11.1 ×10⁻⁶ cm/s and the Papp A→B ([19]; Caco-2, A→B, Average Value, Eurofins, read-out: Caco-2 A→B) was 11.1 ×10⁻⁶ cm/s. It also gave a Papp A→B ([19]; Caco-2, A→B, Replicate 1/2, Eurofins, read-out: Caco-2 A→B) of 12.4 ×10⁻⁶ cm/s, a Papp A→B ([19]; Caco-2, A→B, Reported value, Eurofins, read-out: Caco-2 A→B) of 11.1 ×10⁻⁶ cm/s and a Papp B→A ([19]; Caco-2, B to A, read-out: Caco-2 Papp B to A) of 7.3 ×10⁻⁶ cm/s. It also gave a Papp B→A ([19]; Caco-2, B→A, Average Value, Eurofins, read-out: Caco-2 B→A) of 7.3 ×10⁻⁶ cm/s, a Papp B→A ([19]; Caco-2, B→A, Replicate 1/2, Eurofins, read-out: Caco-2 B→A) of 6.33 ×10⁻⁶ cm/s and a Papp B→A ([19]; Caco-2, B→A, Reported value, Eurofins, read-out: Caco-2 B→A) of 7.3 ×10⁻⁶ cm/s. The remaining at 1 h ([20]; Murine serum stability (% remaining after 1 hr)) was 109%, the remaining at 1 h ([20]; Murine serum stability (% remaining after 1 hr), Replicate 1/2, MBX) was 92.6% and the remaining at 1 h ([20]; Murine serum stability (% remaining after 1 hr), Reported value, MBX) was > 99.8%. The remaining at 1 h ([20]; serum stability, % remaining after 1 h, murine serum, 1 h incubation at 37 °C) was > 99.8%.
